Measurements reported in the kinase profiling compilation of Christmann-Franck et al. (2016).

Columns and labels:
Experiment in all cases: radiometric filter-binding kinase assay, Kinase HotSpot
Conditions in all cases: compound 0.5 µM; ATP 10 µM
PIM1 (human) = PIM1 (human) (UniProt P11309)
EPHA8 (human) = EPHA8 (human) (UniProt P29322)
FYN (human) = FYN (human) (UniProt P06241)
CAMK4 (human) = CAMK4 (human) (UniProt Q16566)
MARK1 (human) = MARK1 (human) (UniProt Q9P0L2)
SLK (human) = SLK (human) (UniProt Q9H2G2)
NEK6 (human) = NEK6 (human) (UniProt Q9HC98)
INSR (human) = INSR (human) (UniProt P06213)
PRKCB1 (human) = PRKCB1 (human) (UniProt P05771)
STK24 (human) = STK24 (human) (UniProt Q9Y6E0)
TGFBR2 (human) = TGFBR2 (human) (UniProt P37173)
PRKG2 (human) = PRKG2 (human) (UniProt Q13237)
HCK (human) = HCK (human) (UniProt P08631)
MUSK (human) = MUSK (human) (UniProt O15146)
EPHA2 (human) = EPHA2 (human) (UniProt P29317)
MAP4K5 (human) = MAP4K5 (human) (UniProt Q9Y4K4)
PAK2 (human) = PAK2 (human) (UniProt Q13177)
CSNK1G2 (human) = CSNK1G2 (human) (UniProt P78368)
DYRK3 (human) = DYRK3 (human) (UniProt O43781)
NUAK2 (human) = NUAK2 (human) (UniProt Q9H093)
MAPK9 (human) = MAPK9 (human) (UniProt P45984)
MET (human) = MET (human) (UniProt P08581)
NEK1 (human) = NEK1 (human) (UniProt Q96PY6)
RIPK2 (human) = RIPK2 (human) (UniProt O43353)
FGFR1 (human) = FGFR1 (human) (UniProt P11362)
OXSR1 (human) = OXSR1 (human) (UniProt O95747)
CAMK2G (human) = CAMK2G (human) (UniProt Q13555)
TTK (human) = TTK (human) (UniProt P33981)
NEK7 (human) = NEK7 (human) (UniProt Q8TDX7)
SRPK3 (human) = SRPK3 (human) (UniProt Q9UPE1)
PTK2 (human) = PTK2 (human) (UniProt Q05397)
IKBKE (human) = IKBKE (human) (UniProt Q14164)
MATK (human) = MATK (human) (UniProt P42679)
CAMK2A (human) = CAMK2A (human) (UniProt Q9UQM7)
PRKX (human) = PRKX (human) (UniProt P51817)
NTRK3 (human) = NTRK3 (human) (UniProt Q16288)
MST4 (human) = MST4 (human) (UniProt Q9P289)
EPHA3 (human) = EPHA3 (human) (UniProt P29320)
RPS6KA6 KD1 KD2 (human) = RPS6KA6 KD1 KD2 (human) (UniProt Q9UK32)
CDC42BPB (human) = CDC42BPB (human) (UniProt Q9Y5S2)
ADRBK2 (human) = ADRBK2 (human) (UniProt P35626)
PTK6 (human) = PTK6 (human) (UniProt Q13882)
Chain of PTK6 (human) (Q13882 whole entry, looked up): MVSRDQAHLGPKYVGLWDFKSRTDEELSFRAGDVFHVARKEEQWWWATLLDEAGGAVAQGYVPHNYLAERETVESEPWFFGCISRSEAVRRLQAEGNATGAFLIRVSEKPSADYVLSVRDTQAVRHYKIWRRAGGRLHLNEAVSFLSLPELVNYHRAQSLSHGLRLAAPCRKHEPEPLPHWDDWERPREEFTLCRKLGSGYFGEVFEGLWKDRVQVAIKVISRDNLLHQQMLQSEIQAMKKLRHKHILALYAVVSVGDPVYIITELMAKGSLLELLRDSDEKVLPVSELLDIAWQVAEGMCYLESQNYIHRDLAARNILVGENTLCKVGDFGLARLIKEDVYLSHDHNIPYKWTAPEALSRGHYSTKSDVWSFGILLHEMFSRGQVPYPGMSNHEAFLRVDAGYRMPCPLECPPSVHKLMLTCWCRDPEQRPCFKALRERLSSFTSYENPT

Chain of MET (human) (P08581 whole entry, looked up): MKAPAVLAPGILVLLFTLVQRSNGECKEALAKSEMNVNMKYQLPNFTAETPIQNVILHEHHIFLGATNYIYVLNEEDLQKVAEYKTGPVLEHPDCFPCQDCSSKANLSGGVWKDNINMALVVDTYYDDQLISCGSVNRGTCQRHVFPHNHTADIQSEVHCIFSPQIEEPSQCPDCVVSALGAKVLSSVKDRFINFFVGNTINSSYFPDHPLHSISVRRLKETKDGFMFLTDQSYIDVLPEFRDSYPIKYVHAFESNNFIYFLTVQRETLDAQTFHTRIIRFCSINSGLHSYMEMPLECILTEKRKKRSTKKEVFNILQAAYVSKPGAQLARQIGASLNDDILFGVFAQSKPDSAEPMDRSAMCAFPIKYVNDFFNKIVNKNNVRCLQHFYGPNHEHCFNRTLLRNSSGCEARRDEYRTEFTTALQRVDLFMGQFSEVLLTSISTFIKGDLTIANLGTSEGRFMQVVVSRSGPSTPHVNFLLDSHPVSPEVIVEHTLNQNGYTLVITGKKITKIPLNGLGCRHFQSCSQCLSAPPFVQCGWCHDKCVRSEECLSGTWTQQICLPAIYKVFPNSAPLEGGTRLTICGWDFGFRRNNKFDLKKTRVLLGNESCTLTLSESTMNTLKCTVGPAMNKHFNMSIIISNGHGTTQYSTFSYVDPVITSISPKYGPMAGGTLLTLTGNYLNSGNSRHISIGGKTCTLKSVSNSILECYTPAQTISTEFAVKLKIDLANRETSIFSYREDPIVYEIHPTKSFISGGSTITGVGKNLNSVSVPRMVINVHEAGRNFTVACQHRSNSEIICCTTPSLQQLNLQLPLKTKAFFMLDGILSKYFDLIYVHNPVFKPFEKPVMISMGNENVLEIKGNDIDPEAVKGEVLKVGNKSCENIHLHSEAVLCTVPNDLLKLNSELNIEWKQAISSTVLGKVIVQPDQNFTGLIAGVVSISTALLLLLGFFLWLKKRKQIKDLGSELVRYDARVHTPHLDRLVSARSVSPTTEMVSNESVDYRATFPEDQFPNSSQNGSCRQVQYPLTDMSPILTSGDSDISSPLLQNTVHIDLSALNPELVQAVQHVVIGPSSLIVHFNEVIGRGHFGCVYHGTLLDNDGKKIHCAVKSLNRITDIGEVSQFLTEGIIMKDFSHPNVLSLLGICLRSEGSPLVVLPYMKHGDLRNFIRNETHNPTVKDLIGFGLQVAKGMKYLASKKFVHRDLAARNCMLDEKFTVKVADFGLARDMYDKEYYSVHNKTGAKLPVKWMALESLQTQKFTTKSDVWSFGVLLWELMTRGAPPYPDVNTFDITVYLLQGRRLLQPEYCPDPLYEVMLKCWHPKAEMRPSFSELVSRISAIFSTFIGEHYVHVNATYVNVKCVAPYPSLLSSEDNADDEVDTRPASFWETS
Chain of NUAK2 (human) (Q9H093 whole entry, looked up): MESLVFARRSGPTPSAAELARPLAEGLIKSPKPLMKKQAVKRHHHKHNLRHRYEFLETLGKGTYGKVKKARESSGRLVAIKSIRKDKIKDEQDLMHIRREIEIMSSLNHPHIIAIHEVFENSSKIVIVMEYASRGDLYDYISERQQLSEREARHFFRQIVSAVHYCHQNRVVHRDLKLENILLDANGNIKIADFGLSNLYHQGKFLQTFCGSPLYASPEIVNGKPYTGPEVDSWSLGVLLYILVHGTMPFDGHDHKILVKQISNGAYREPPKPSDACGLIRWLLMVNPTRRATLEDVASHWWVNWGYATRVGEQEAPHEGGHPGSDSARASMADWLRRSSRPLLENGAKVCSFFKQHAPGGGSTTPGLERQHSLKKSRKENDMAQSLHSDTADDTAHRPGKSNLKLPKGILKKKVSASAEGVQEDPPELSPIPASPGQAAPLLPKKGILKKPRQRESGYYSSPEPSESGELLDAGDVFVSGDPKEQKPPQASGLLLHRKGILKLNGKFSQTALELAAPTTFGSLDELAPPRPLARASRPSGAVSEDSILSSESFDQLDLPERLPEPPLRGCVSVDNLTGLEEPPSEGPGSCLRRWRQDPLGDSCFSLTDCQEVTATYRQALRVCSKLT
Chain of NEK7 (human) (Q8TDX7 whole entry, looked up): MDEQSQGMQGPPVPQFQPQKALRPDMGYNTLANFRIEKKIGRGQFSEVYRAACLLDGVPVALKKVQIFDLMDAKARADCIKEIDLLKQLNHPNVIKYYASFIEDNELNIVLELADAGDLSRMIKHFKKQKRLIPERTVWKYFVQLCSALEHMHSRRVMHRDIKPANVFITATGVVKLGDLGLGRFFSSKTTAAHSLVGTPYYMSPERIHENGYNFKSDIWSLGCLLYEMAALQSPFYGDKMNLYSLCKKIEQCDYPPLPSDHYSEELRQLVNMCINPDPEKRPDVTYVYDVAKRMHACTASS
Chain of EPHA3 (human) (P29320 whole entry, looked up): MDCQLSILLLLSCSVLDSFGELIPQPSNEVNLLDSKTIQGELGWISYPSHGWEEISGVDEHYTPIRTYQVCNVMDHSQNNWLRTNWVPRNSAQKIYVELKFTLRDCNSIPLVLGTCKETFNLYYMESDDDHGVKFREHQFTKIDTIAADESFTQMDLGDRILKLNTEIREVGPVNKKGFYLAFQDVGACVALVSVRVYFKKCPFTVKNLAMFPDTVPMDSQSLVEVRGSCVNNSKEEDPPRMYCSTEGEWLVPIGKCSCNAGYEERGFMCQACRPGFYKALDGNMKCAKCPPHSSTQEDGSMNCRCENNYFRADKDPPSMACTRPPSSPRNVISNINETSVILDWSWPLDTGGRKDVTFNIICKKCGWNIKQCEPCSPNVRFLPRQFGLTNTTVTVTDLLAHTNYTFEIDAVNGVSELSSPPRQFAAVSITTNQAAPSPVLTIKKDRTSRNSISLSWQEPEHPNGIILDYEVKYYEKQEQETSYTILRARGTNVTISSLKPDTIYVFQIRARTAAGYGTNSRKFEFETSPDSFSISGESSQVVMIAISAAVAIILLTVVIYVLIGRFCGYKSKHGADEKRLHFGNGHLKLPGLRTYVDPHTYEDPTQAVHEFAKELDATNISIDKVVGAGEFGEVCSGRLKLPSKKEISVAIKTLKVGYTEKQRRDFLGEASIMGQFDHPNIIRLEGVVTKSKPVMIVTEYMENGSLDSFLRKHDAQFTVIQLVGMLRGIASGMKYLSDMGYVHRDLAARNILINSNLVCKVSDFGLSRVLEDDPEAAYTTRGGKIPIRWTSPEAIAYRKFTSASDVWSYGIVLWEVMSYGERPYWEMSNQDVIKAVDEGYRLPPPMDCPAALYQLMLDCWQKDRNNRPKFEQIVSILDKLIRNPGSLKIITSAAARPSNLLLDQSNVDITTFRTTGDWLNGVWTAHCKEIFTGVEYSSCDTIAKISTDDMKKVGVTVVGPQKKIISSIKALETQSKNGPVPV
Chain of SRPK3 (human) (Q9UPE1 whole entry, looked up): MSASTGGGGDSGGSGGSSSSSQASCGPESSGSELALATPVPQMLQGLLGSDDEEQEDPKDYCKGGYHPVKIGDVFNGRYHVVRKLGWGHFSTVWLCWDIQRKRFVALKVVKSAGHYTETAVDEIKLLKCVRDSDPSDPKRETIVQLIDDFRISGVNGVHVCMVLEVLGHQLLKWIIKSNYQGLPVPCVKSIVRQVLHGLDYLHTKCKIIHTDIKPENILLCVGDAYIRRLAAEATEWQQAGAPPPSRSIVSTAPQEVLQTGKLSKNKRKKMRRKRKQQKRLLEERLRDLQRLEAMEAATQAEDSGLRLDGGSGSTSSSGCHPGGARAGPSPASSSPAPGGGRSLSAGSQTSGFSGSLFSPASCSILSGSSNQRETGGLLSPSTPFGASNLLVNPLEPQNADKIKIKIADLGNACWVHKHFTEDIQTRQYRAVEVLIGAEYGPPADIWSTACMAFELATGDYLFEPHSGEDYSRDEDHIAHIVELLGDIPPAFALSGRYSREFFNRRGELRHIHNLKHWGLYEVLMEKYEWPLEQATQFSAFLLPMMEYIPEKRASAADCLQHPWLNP
Chain of ADRBK2 (human) (P35626 whole entry, looked up): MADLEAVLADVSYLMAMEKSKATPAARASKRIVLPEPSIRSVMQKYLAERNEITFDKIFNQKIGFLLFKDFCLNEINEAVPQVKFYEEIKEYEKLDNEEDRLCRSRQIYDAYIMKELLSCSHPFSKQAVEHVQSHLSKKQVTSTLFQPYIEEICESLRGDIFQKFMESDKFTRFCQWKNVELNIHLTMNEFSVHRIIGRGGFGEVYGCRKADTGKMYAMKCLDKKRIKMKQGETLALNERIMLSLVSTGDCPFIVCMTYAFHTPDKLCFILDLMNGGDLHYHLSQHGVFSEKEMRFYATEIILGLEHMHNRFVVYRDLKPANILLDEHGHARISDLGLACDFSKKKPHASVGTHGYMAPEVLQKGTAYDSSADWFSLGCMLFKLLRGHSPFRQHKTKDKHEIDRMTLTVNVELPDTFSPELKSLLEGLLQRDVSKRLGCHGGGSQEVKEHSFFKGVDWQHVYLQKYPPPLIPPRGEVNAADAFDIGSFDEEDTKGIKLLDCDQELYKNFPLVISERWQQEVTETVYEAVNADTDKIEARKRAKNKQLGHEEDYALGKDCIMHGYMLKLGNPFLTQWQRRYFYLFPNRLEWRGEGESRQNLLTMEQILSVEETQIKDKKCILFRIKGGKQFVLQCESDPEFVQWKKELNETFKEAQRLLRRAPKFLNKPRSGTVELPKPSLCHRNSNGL

## CCCC(=O)Oc1ccc2[nH]c(C(=O)c3cc4ccccc4[nH]3)cc2c1
PIM1 (human)
  residual activity: 100%
EPHA8 (human)
  residual activity: 98%
FYN (human)
  residual activity: 102%
CAMK4 (human)
  residual activity: 111%
MARK1 (human)
  residual activity: 96.4%
SLK (human)
  residual activity: 98.9%
NEK6 (human)
  residual activity: 101%
INSR (human)
  residual activity: 101%
PRKCB1 (human)
  residual activity: 97.3%
STK24 (human)
  residual activity: 95.5%
TGFBR2 (human)
  residual activity: 101%
PRKG2 (human)
  residual activity: 97.6%
HCK (human)
  residual activity: 95.1%
MUSK (human)
  residual activity: 79.8%
EPHA2 (human)
  residual activity: 99%
MAP4K5 (human)
  residual activity: 88%
PAK2 (human)
  residual activity: 102%
CSNK1G2 (human)
  residual activity: 95.5%
DYRK3 (human)
  residual activity: 92.6%
NUAK2 (human)
  residual activity: 73.4%
MAPK9 (human)
  residual activity: 76%
MET (human)
  residual activity: 103%
NEK1 (human)
  residual activity: 94.3%
RIPK2 (human)
  residual activity: 90%
FGFR1 (human)
  residual activity: 96%
OXSR1 (human)
  residual activity: 92.4%
CAMK2G (human)
  residual activity: 99.4%
TTK (human)
  residual activity: 85.7%
NEK7 (human)
  residual activity: 95.5%
SRPK3 (human)
  residual activity: 93.2%
PTK2 (human)
  residual activity: 94.1%
IKBKE (human)
  residual activity: 91.4%
MATK (human)
  residual activity: 93.4%
CAMK2A (human)
  residual activity: 87%
PRKX (human)
  residual activity: 96.1%
NTRK3 (human)
  residual activity: 95.9%
MST4 (human)
  residual activity: 94.8%
EPHA3 (human)
  residual activity: 96.8%
RPS6KA6 KD1 KD2 (human)
  residual activity: 95.4%
CDC42BPB (human)
  residual activity: 99.5%
ADRBK2 (human)
  residual activity: 101%
PTK6 (human)
  residual activity: 85.4%
